Results on 22 compounds are retold here after patent US9796711B2, “Substituted pyrazolo[3,4-b]pyridin-6-carboxylic acids and method of use” (AbbVie S.àr.l., priority 2015, dated 2017).

The target of this assay is T1, ΔF508-CFTR (Homo sapiens, UniProt P13569, DEL508-508).
T1 construct: host or cells: CFBE41o-, doxycycline-inducible
The assay can be described thus: CFTR cell surface levels using HRP-tagged ΔF508-CFTR expressing CFBE cells, in the presence of a co-corrector. Particulars: HRP-tagged ΔF508-CFTR expressing CFBE cells, in the presence of 3 μM co-corrector; for EC50: read-out: EC50. The format is cell-based. An excerpt:
Measuring CFTR Cell Surface Levels Using HRP-Tagged AF508-CFTR Expressing CFBE Cells
The HRP-tagged AF508-CFTR cell assay measures the expression of CFTR-ΔF508 at the plasma membrane. CFTR-ΔF508 has a folding defect leading to absence of protein at the plasma membrane. This assay is used to evaluate the capacity of compounds to increase the expression of CFTR-ΔF508 at the plasma membrane. The CFTR-ΔF508 is tagged with HRP (horse radish peroxidase enzyme) within the ECL4 (Extracellular loop 4) of CFTR (Phuan, P.-W. et al. Synergy-based small-molecule screen using a human lung epithelial cell line yields AF508-CFTR correctors that augment VX-809 maximal efficacy. Mol. Pharmacol. 86, 42-51 (2014)). When HRP-tagged AF508-CFTR is present at the plasma membrane, the HRP enzyme activity can be measured. The amount of CFTR-ΔF508 that can be rescued to the plasma membrane is correlated with the amount of functional enzyme that can be measured.
There are several ways to measure the capacity of compounds to rescue CFTR-ΔF508 to the plasma membrane; either compounds are evaluated on their own and the impact on plasma membrane levels is measured or compounds are evaluated in combination with a co-corrector, i.e. a compound that rescues CFTR-ΔF508 to the plasma membrane but rescue can be enhanced by addition of compounds due to a complementary mode of action.
Activity of Compounds in Combination with Co-Corrector:
For this purpose doxycycline-inducible AF508-CFTR-HRP expressing CFBE4lo-cells (obtained from Gergely Lukacs, McGill University) were maintained in MEM (Minimum Essential Medium, Gibco; 31095) supplemented with 10% fetal bovine serum (Hyclone; SV30160.03) under puromycin (3 μg/mL) and G418 selection (0.2 mg/mL). For compound testing, cells were seeded at 4000 cells/well in white 384-well plates (Greiner; 781080) in 50 μL of medium containing 0.5 μg/mL doxycycline and incubated for 68 hours at 37° C., 5% CO2. On day four, 10 μL of test compounds diluted in PBS (phosphate buffered saline) were added to the plates at a final DMSO concentration of 0.1%. In order to measure compound synergy with a co-corrector, 3 μM co-corrector (3-[(2R,4R)-4-({[1-(2,2-difluoro-1,3-benzodioxol-5-yl)cyclopropyl]carbonyl}amino)-7-methoxy-3,4-dihydro-2H-chromen-2-yl]benzoic acid) was added along with test compounds. All compound plates contained negative controls (DMSO) and positive controls (3 μM co-corrector). Cell plates were incubated at 33° C., 5% CO2 for 20 hours. On day five, the cells were washed five times with phosphate-buffered saline, and HRP activity was assayed by the addition of 50 μL/well of HRP substrate (SuperSignal™ West Pico Chemiluminescent Substrate, Thermo Scientific; 34080). After incubation for 15 minutes in the dark, the chemiluminescence was measured using a plate reader (EnVision®, Perkin Elmer). Raw data were normalized to percentage activity values using the equation: 100×(Sample−Negative control)/(Positive control−Negative Control).

T1 sequence (P13569 with tags, fused parts or gaps DEL508-508): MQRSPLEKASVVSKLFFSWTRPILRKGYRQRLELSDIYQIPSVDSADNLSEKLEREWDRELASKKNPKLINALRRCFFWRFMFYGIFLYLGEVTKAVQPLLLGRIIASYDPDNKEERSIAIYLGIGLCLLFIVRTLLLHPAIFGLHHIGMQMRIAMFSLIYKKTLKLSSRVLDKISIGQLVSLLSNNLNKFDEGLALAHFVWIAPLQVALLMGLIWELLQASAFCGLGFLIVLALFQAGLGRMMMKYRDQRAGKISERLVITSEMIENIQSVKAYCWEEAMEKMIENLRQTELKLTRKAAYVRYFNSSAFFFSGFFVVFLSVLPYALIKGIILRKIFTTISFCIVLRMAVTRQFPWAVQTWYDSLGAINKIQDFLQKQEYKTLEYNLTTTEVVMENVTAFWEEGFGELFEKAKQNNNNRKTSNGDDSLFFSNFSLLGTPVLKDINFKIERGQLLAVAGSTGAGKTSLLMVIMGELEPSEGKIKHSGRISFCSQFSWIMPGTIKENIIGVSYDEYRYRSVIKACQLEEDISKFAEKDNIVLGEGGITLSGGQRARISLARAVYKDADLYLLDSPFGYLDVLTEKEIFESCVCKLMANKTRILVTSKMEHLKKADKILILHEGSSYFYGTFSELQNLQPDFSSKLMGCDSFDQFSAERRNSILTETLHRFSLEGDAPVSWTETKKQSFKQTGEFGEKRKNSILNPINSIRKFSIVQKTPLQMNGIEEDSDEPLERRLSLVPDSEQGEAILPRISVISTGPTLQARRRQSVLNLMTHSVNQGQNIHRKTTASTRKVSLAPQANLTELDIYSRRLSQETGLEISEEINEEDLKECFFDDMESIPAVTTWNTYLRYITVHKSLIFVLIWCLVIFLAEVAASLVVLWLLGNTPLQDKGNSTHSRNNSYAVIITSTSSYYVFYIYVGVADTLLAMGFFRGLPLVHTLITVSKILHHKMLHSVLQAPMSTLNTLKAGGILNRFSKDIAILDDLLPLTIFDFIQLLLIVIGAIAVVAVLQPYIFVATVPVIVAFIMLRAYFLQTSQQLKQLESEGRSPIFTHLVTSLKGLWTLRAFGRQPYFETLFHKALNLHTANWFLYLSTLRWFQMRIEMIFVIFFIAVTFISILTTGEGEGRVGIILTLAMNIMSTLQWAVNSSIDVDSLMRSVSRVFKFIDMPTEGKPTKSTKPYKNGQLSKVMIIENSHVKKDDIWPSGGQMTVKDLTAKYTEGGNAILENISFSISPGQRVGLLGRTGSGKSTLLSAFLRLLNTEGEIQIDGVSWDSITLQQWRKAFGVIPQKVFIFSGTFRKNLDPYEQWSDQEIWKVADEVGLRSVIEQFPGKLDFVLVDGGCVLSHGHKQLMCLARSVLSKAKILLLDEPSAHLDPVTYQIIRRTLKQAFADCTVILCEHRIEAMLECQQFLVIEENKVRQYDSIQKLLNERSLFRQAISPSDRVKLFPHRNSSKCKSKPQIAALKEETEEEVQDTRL

What is called EC50 is the concentration that produces a half-maximal response. `CN1CCCN(C(=O)CCN2CCN(c3cc(C(=O)O)nc4c3c(C3CCC3)nn4-c3ccccc3)CC2)CC1` [compound 717, 3-cyclobutyl-4-{4-[3-(4-methyl-1,4-diazepan-1-yl)-3-oxopropyl]piperazin-1-yl}-1-phenyl-1H-pyrazolo[3,4-b]pyridine-6-carboxylic acid]: the “% Activation” value is given as 124.6% and the EC50 was determined as 5000 nM.
`O=C(O)c1cc(OCC2CC(F)(F)C2)c2c(C3CCC3)nn(-c3ccccc3)c2n1` [compound 600, 3-cyclobutyl-4-[(3,3-difluorocyclobutyl)methoxy]-1-phenyl-1H-pyrazolo[3,4-b]pyridine-6-carboxylic acid]: the “% Activation” value came out at 334.3% and the EC50 was 383 nM.
For `CC(C)(C)c1nn(-c2ccccc2)c2nc(C(=O)O)cc(-c3ccc(N4CCOCC4)cc3)c12` [compound 40, 3-tert-butyl-4-[4-(morpholin-4-yl)phenyl]-1-phenyl-1H-pyrazolo[3,4-b]pyridine-6-carboxylic acid] the same measures were 340.8% and 393 nM.
Take `O=C(O)c1cc(OCC2CCOCC2)c2c(C3CCC3)nn(-c3ccc(F)cc3)c2n1` [compound 658, 3-cyclobutyl-1-(4-fluorophenyl)-4-[(oxan-4-yl)methoxy]-1H-pyrazolo[3,4-b]pyridine-6-carboxylic acid]: the “% Activation” value came to 345.9% and the half-maximal effective concentration (EC50) came to 455 nM.
On to `CC(O)CN1CCC(N2CCN(c3cc(C(=O)O)nc4c3c(C(C)C)nn4-c3ccc(F)cc3)CC2)CC1` (centres unmarked) [compound 742, 1-(4-fluorophenyl)-4-{4-[1-(2-hydroxypropyl)piperidin-4-yl]piperazin-1-yl}-3-(propan-2-yl)-1H-pyrazolo[3,4-b]pyridine-6-carboxylic acid], for which the “% Activation” value is listed as 126.1% and the EC50 amounted to 5000 nM.
`O=C(O)c1cc(O[C@H]2C[C@@H](N3CCC3)C2)c2c(C3CCC3)nn(-c3ccccc3)c2n1` [compound 598, 4-{[cis-3-(azetidin-1-yl)cyclobutyl]oxy}-3-cyclobutyl-1-phenyl-1H-pyrazolo[3,4-b]pyridine-6-carboxylic acid]: the “% Activation” value is listed as 274.4% and the EC50 was determined as 3330 nM.
Consider `COCCN1CCN(C2CCN(c3cc(C(=O)O)nc4c3c(C(C)C)nn4-c3ccc(F)cc3)CC2)CC1` [compound 746, 1-(4-fluorophenyl)-4-{4-[4-(2-methoxyethyl)piperazin-1-yl]piperidin-1-yl}-3-(propan-2-yl)-1H-pyrazolo[3,4-b]pyridine-6-carboxylic acid], for which the “% Activation” value is 418.4% and the EC50 worked out at 549 nM.
Consider `O=C(O)c1cc(N2CCC3(C2)OCCO3)c2c(C3CCC3)nn(-c3ccccc3)c2n1` [compound 713, 3-cyclobutyl-4-(1,4-dioxa-7-azaspiro[4.4]nonan-7-yl)-1-phenyl-1H-pyrazolo[3,4-b]pyridine-6-carboxylic acid], for which the “% Activation” value came to 243.5% and the concentration for a half-maximal effect (EC50) is 659 nM.
For `O=C(O)c1cc(N2CC3(CCCOC3)C2)c2c(C3CCC3)nn(-c3ccccc3)c2n1` [compound 720, 3-cyclobutyl-4-(6-oxa-2-azaspiro[3.5]nonan-2-yl)-1-phenyl-1H-pyrazolo[3,4-b]pyridine-6-carboxylic acid], the “% Activation” value is 263.1% and the EC50 came to 356 nM.
For `O=C(O)c1cc(N2CCN3CCC[C@@H]3C2)c2c(C3CCC3)nn(-c3ccccc3)c2n1` [compound 721, 3-cyclobutyl-4-[(8aR)-hexahydropyrrolo[1,2-a]pyrazin-2(1H)-yl]-1-phenyl-1H-pyrazolo[3,4-b]pyridine-6-carboxylic acid] the same measures were 302.1% and 510 nM.
`O=C(O)c1cc(N2CCC(CN3CCOCC3)CC2)c2c(C3CCC3)nn(-c3ccc(F)cc3)c2n1` [compound 821, 3-cyclobutyl-1-(4-fluorophenyl)-4-{4-[(morpholin-4-yl)methyl]piperidin-1-yl}-1H-pyrazolo[3,4-b]pyridine-6-carboxylic acid]: the “% Activation” value amounted to 545.15% and the EC50 stood at 134 nM.
Turning to `CN1CCN(c2cc(C(=O)O)nc3c2c(C2CCC2)nn3-c2ccccc2)CC1` [compound 563, 3-cyclobutyl-4-(4-methylpiperazin-1-yl)-1-phenyl-1H-pyrazolo[3,4-b]pyridine-6-carboxylic acid], the “% Activation” value turned out to be 272.97% and the half-maximal effective concentration (EC50) came to 2230 nM.
Regarding `O=C(O)c1cc(N2CCC3(CC2)OCCO3)c2c(C3CCC3)nn(-c3ccccc3)c2n1` [compound 700, 3-cyclobutyl-4-(1,4-dioxa-8-azaspiro[4.5]decan-8-yl)-1-phenyl-1H-pyrazolo[3,4-b]pyridine-6-carboxylic acid], the “% Activation” value is given as 290.9% and the EC50 amounted to 128 nM.
As for `N#CC1COC2(C1)CN(c1cc(C(=O)O)nc3c1c(C1CCC1)nn3-c1ccccc1)C2` (centres unmarked) [compound 716, 4-(7-cyano-5-oxa-2-azaspiro[3.4]octan-2-yl)-3-cyclobutyl-1-phenyl-1H-pyrazolo[3,4-b]pyridine-6-carboxylic acid], the “% Activation” value was determined as 282.9% and the half-maximal effective concentration (EC50) amounted to 772 nM.
For `CN1CCOC(C2CN(c3cc(C(=O)O)nc4c3c(C3CCC3)nn4-c3ccccc3)C2)C1` (centres unmarked) [compound 723, 3-cyclobutyl-4-[3-(4-methylmorpholin-2-yl)azetidin-1-yl]-1-phenyl-1H-pyrazolo[3,4-b]pyridine-6-carboxylic acid] the same measures were 344.8% and 1050 nM.
On to `O=C(O)c1cc(N2CCC(CCCN3CCCCC3)CC2)c2c(C3CCC3)nn(-c3ccccc3)c2n1` [compound 732, 3-cyclobutyl-1-phenyl-4-{4-[3-(piperidin-1-yl)propyl]piperidin-1-yl}-1H-pyrazolo[3,4-b]pyridine-6-carboxylic acid], for which the “% Activation” value is 409.6% and the 50% effective concentration (EC50) is 119 nM.
For `CN(C)C(=O)N1CCN(c2cc(C(=O)O)nc3c2c(C2CCC2)nn3-c2ccccc2)CC1` [compound 708, 3-cyclobutyl-4-[4-(dimethylcarbamoyl)piperazin-1-yl]-1-phenyl-1H-pyrazolo[3,4-b]pyridine-6-carboxylic acid], the “% Activation” value is listed as 314.8% and the half-maximal effective concentration (EC50) was determined as 147 nM.
Turning to `CCCN1CCN(c2cc(C(=O)O)nc3c2c(C2CCC2)nn3-c2ccccc2)CC1` [compound 707, 3-cyclobutyl-1-phenyl-4-(4-propylpiperazin-1-yl)-1H-pyrazolo[3,4-b]pyridine-6-carboxylic acid], the “% Activation” value was found to be 326.3% and the concentration for a half-maximal effect (EC50) turned out to be 341 nM.
For `O=C(O)c1cc(N2C[C@@H](O)[C@H](O)C2)c2c(C3CCC3)nn(-c3ccccc3)c2n1` [compound 445, 3-cyclobutyl-4-[(3R,4R)-3,4-dihydroxypyrrolidin-1-yl]-1-phenyl-1H-pyrazolo[3,4-b]pyridine-6-carboxylic acid] the same measures were 127.85% and more than 10000 nM.
As to `C[C@H]1CN(c2cc(C(=O)O)nc3c2c(C2CCC2)nn3C2CCCCC2)CCN1Cc1ccccc1` [compound 881, 4-[(3S)-4-benzyl-3-methylpiperazin-1-yl]-3-cyclobutyl-1-cyclohexyl-1H-pyrazolo[3,4-b]pyridine-6-carboxylic acid], the “% Activation” value is 242.75% and the EC50 came to 700 nM.
As for `CC(C)c1nn(-c2ccc(F)cc2)c2nc(C(=O)O)cc(N3CCC(CCCN4CCCC4)CC3)c12` [compound 749, 1-(4-fluorophenyl)-3-(propan-2-yl)-4-{4-[3-(pyrrolidin-1-yl)propyl]piperidin-1-yl}-1H-pyrazolo[3,4-b]pyridine-6-carboxylic acid], the “% Activation” value was determined as 387% and the EC50 worked out at 277 nM.
`CC1(c2nn(-c3ccccc3)c3nc(C(=O)O)cc(-c4ccc(N5CCOCC5)cc4)c23)CCC1` [compound 332, 3-(1-methylcyclobutyl)-4-[4-(morpholin-4-yl)phenyl]-1-phenyl-1H-pyrazolo[3,4-b]pyridine-6-carboxylic acid]: the “% Activation” value stood at 346.12% and the half-maximal effective concentration (EC50) was 917 nM.
